Test results: patent US8999994B2, “Derivatives of propargylamine having neuroprotective capacity for the treatment of Alzheimer's and Parkinson's diseases” (Consejo Superior de Investigaciones Cientificas, priority 2010, dated 2015)
Like-named read-outs stand apart in the source and are kept apart here.

Assays:
Assay type in all cases: biochemical
[1] = molecular target: MAO-B (Rattus norvegicus (Rat), UniProt P19643); assay: Inhibition of monoamine oxidase B (Fowler and Tipton radiometric method, rat liver mitochondria)
[2] = molecular target: AChE (electric eel) (Electrophorus electricus (Electric eel) (Gymnotus electricus), UniProt O42275); conditions: acetylthiocholine iodide […], 10 min incubation, mean ± SEM, read-out: IC50 (μM) ChE EeAChE
[3] = molecular target: MAO-A (Rattus norvegicus (Rat), UniProt P21396); assay: Inhibition of monoamine oxidase A (Fowler and Tipton radiometric method, rat liver mitochondria)
[4] = rat liver mitochondria, [14C]-5-HT 100 μM substrate, 30 min incubation, mean ± SEM, read-out: IC50 (μM) MAO MAO-A
[5] = rat liver mitochondria, [14C]-phenylethylamine 20 μM substrate, 30 min incubation, mean ± SEM

Chain of MAO-B (P19643 whole entry): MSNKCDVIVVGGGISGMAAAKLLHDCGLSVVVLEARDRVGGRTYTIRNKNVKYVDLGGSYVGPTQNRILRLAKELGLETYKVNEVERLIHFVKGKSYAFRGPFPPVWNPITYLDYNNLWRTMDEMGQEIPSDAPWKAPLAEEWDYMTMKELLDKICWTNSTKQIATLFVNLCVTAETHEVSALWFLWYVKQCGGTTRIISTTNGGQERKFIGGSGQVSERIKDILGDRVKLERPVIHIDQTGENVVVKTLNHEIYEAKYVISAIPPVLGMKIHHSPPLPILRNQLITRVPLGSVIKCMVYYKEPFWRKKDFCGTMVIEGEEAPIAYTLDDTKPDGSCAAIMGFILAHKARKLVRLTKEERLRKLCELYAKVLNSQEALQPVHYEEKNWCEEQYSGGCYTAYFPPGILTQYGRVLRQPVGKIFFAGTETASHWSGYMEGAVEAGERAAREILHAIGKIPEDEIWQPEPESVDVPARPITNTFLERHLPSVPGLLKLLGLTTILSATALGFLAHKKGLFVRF
Chain of MAO-A (P21396 whole entry): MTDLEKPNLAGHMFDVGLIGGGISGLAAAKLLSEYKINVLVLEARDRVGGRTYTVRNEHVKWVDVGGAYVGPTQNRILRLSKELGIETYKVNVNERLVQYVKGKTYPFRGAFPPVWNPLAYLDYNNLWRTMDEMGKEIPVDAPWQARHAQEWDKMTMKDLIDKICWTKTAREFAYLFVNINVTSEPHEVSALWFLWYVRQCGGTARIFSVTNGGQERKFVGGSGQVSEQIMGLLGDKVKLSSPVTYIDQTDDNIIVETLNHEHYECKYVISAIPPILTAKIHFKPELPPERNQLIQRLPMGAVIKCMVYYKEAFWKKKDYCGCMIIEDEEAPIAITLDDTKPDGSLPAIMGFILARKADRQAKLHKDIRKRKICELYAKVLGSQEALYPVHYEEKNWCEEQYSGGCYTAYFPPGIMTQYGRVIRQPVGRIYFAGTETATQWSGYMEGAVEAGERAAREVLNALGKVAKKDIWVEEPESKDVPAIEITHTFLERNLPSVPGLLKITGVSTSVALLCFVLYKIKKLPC
Chain of AChE (electric eel) (O42275 whole entry, looked up): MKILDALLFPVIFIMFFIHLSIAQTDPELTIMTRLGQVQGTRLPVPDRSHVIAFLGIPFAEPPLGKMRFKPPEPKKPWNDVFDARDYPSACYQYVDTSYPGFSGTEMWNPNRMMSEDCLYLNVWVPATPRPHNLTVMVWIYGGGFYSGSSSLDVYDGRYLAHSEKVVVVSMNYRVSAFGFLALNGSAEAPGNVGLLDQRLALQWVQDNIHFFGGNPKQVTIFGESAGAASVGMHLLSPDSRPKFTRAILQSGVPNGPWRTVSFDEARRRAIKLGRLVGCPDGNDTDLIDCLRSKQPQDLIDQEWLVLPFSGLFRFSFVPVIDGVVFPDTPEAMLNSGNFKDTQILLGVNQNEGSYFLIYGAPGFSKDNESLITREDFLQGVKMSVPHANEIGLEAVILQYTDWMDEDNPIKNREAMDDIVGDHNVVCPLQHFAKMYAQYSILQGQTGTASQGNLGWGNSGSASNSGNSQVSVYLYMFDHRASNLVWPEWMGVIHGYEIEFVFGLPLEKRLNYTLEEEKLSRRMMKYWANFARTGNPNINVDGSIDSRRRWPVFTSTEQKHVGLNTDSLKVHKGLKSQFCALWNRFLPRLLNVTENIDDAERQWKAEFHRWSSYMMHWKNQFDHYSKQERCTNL

In the case of `Nc1c2c(nc3ccccc13)CCCC2` [Tacrine, tacrine, reference compound], the “IC50 (μM) MAO MAO-B” value [1] is reported as 499.6 ± 12.8 µM.
`C#CCN(C)Cc1cc2cc(OCC3CCN(Cc4ccccc4)CC3)ccc2n1C` [Compound 4, N-{(5-((1-benzylpiperidin-4-yl)methoxy)-1-methyl-1H-indol-2-yl)methyl}-N-methylprop-2-yn-1-amine] gave an IC50 [2] of 0.31 ± 0.04 µM, an IC50 [3, 4] of 0.0822 ± 0.0032 µM and an IC50 [1] of 0.745 ± 0.0199 µM.
For `C#CCN(C)Cc1cc2cc(OCCC3CCN(Cc4ccccc4)CC3)ccc2n1C` [Compound 5, N-((5-(2-(1-benzylpiperidin-4-yl)ethoxy)-1-methyl-1H-indol-2-yl)methyl)-N-methylprop-2-yn-1-amine], the IC50 [2] was 0.42 ± 0.04 µM, the IC50 [3, 4] was 0.0067 ± 0.0018 µM and the IC50 [1] was 0.13 ± 0.0414 µM.
With `C#CCN(C)Cc1cc2cc(OCCCN3CCC(Cc4ccccc4)CC3)ccc2n1C` [Compound 2, N-{(5-[3-(4-benzylpiperidin-1-yl)propoxy)-1-methyl-1H-indol-2-yl]methyl}-N-methylprop-2-yn-1-amine] the IC50 [2] was 18.1 ± 0.4 µM, the IC50 ([3]; read-out: IC50 (μM) MAO MAO-A) was 0.0654 ± 0.0174 µM and the IC50 [1, 5] was 11.3 ± 2.38 µM.
`C#CCN(C)Cc1cc2cc(OCCCC3CCN(Cc4ccccc4)CC3)ccc2n1C` [Compound 6, N-((5-[3-(1-benzylpiperidin-4-yl)propoxy)-1-methyl-1H-indol-2-yl)methyl)-N-methylprop-2-yn-1-amine] gave an IC50 [3, 4] of 0.0052 ± 0.0011 µM and an IC50 [1, 5] of 0.0431 ± 0.0079 µM.
For `C#CCN(C)Cc1cc2cc(OCCCCC3CCN(Cc4ccccc4)CC3)ccc2n1C` [Compound 7, N-((5-[4-(1-benzylpiperidin-4-yl)butoxy)-1-methyl-1H-indol-2-yl)methyl)-N-methylprop-2-yn-1-amine], the IC50 [2] was 0.26 ± 0.07 µM, the IC50 [3, 4] was 0.0105 ± 0.0044 µM and the IC50 [1, 5] was 2.77 ± 0.116 µM.
With `C#CCN(C)Cc1cc2cc(OCCCN3CCN(Cc4ccccc4)CC3)ccc2n1C` [Compound 3, N-{(5-[3-(4-benzylpiperazin-1-yl)propoxy)-1-methyl-1H-indol-2-yl]methyl}-N-methylprop-2-yn-1-amine] the IC50 [2] was > 100 µM, the IC50 [3] was 0.0305 ± 0.0135 µM and the IC50 [1, 5] was 1.64 ± 0.707 µM.
With `C#CCN(C)Cc1cc2cc(OCCN3CCC(Cc4ccccc4)CC3)ccc2n1C` [Compound 1, N-{(5-[2-(4-benzylpiperidin-1-yl)ethoxy)-1-methyl-1H-indol-2-yl]methyl}-N-methylprop-2-yn-1-amine] the IC50 [2] was > 100 µM, the IC50 [3, 4] was 0.143 ± 0.0443 µM and the IC50 [1, 5] was 1.46 ± 0.499 µM.
